Test results as given in US20260138981A1, “DIHYDROFOLATE REDUCTASE INHIBITORS FOR ANTI-BIOTIC RESISTANT INFECTIONS” (THE TRUSTEES OF PRINCETON UNIVERSITY, priority 2022, published 2026).

What was measured:
P. aeruginosa PA14 [1] = experiment: Murine thigh infection model of PA14; assay type: in vivo, mouse; conditions: 24 hours
Protocol: FIG. 2C quantifies treatment of mice with fluorofolin (SC) with or without SMX 100 mg/kg (IP).
FIG. 2D characterizes Fluorofolin and SMX treatment of mice fed a diet of thymidine-supplemented chow during PA14 infection. Mice were treated 1 and 12 hours post infection (n=5 for each group). P values from Tukey's multiple comparisons test (P-values≤0.0001).
To investigate the ability of fluorofolin to clear a P. aeruginosa infection in vivo, a murine thigh infection model of PA14 was employed. The maximum tolerated dose of fluorofolin was determined to be 25 mg/kg administered subcutaneously (SC). […] We note that this dose of SMX was previously used to mimic clinically-relevant levels of SMX used for cotreatment with TMP in humans. Mice were inoculated with 5.33 log CFU of P. aeruginosa PA14 CFU of PA14 and treated SC with fluorofolin at 25 mg/kg at 1 and 12 hours post infection. Thighs were harvested 24 hours post infection to determine bacterial load.
It was also sought to support the feasibility of thymidine supplementation in vivo by testing the hypothesis that fluorofolin should remain active in the presence of thymidine supplementation. […]
Female 5-6-week-old CD-1 mice were made neutropenic through intraperitoneal (IP) cyclophosphamide treatment (Cytoxan) prior to this study. […] In vivo efficacy was evaluated by the University of North Texas Health Science Center (Fort Worth, Texas).

WI-38 cells = experiment: Mammalian cell cytotoxicity (CyQUANT); assay type: cell-based; conditions: 72 hours
Protocol: FIG. 5D provides IC50 of fluorofolin against in vitro mammalian cell lines relative to the IC50 of IRS-16. HLF: human lung fibroblast, HK-2: human kidney epithelial, PBMC: peripheral blood mononuclear cell, WI-38: Embryonic lung tissue.
After 24 hours, DMSO or compounds were added in 3-fold dilutions and incubated for 72 hours. For PBMC, CellTiter-Glo Reagent was added in equal volume and incubated for 30 min after which luminescence was read. For other cell types, CyQUANT Detection Reagent was added in equal volume and incubated for 1 hour after which fluorescence was read with standard green filter set (508/527 nm ex). Cell toxicity was evaluated by Pharmaron, Inc. (Beijing, […]).

purified human DHFR = target: T1, purified human DHFR (Homo sapiens, UniProt P00374); experiment: Human DHFR in vitro assay; assay type: biochemical
T1 construct: purchased R&D Systems 8456-DR
T1 sequence (P00374 whole entry): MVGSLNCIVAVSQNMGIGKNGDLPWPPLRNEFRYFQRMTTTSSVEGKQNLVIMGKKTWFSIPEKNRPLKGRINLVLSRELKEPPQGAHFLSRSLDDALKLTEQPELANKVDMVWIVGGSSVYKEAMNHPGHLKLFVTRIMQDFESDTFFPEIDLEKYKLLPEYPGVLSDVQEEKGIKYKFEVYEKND
Protocol: FIG. 1E is an analogous assay to FIG. 2B using purified human DHFR.
Human purified DHFR was purchased from R&D Systems (8456-DR). DHFR activity was assayed by monitoring the decrease in absorbance by NADPH at […]. DHFR enzyme (0.5 μg/mL), dihydrofolic acid (100 μM), and different concentrations of methotrexate, fluorofolin, or DMSO control was dissolved in 200 μL of Tris buffer (pH 7.5, Tris salt concentration 25 mM). Reaction was initiated by adding NADPH in a 10× stock (1 mM for final concentration 100 μM), and absorbance at 340 nm was monitored over time by Cytation 5 reader (Agilent). Activity was normalized to the DMSO control.

P. aeruginosa PA01 = experiment: MIC in LB Broth; assay type: cell-based; conditions: Pseudomonas aeruginosa, 16 hours at 37° C. in LB Broth, OD600
Protocol: (§1) The minimum inhibitory concentration is defined as the lowest concentration of antibiotic at which no visible growth was detected after 16 hours at 37° C. Overnight cultures were diluted 1:150 in LB Broth and added to a 96-well plate. Antibiotics were serially diluted 1:2 and added to columns of the 96-well plate and grown at 37° C. with continuous shaking. Cell growth was measured by optical density (OD600). MIC assays were performed in either BioTek Synergy HT (Winooski, VT) or Tecan InfiniteM200 Pro (Männedorf, CH) microplate readers.

E. cloacae ATCC BAA-1143 = experiment: MIC in LB Broth; assay type: cell-based; conditions: Enterobacter cloacae, ATCCBAA1143, 16 hours at 37° C. in LB Broth, OD600
Protocol: as §1

S. aureus USA300 = experiment: MIC in LB Broth; assay type: cell-based; conditions: Staphylococcus aureus, 16 hours at 37° C. in LB Broth, OD600
Protocol: as §1

P. aeruginosa PA14 [2] = experiment: Membrane permeability, TO-PRO-3 flow cytometry; assay type: cell-based; conditions: PA14, 2×MIC, 15 min
Protocol: FIG. 5A provides flow cytometry results of PA14 stained with the membrane permeability dye TO-PRO-3. […]. The gates were determined for TO-PRO-3 staining using solvent only and polymixin B controls.
The ability of fluorofolin to permeabilize P. aeruginosa PA14 was examined. Specifically, flow cytometry of P. aeruginosa stained with TO-PRO-3 was used, treated the bacteria with 2×MIC, and analyzed membrane integrity. […] It was hypothesized that this decrease in membrane targeting might also decrease toxicity due to the disruption of eukaryotic membranes.
Overnight P. aeruginosa PA14 or E. coli lptD4213 cultures were diluted 1:100 and grown to mid exponential phase at 37° C. Cultures were diluted 1:10 into PBS and treated with antibiotics for 15 minutes. P. aeruginosa PA14 was stained with TO-PRO-3 (640 nm excitation, 670/30 nm emission) to measure cell membrane integrity. […] DiOC2(3) was evaluated as a ratio of green (488 nm excitation, 525/50 nm emission) to red (488 nm excitation, 610/20 nm emission) (Novo et al., 1999). […] 100,000 events were recorded for each data file. Gates for permeabilization were determined using Polymixin B (Sigma-Aldrich P1004) and untreated controls. Gates for depolarization were determined using CCCP as a positive control. Data was analyzed using FlowJo v10 software (FlowJo LLC, Ashland, OR).

`Nc1nc(N)c2c(ccc3c2ccn3Cc2ccnc(F)c2)n1` [fluorofolin] was tested, and the “growth of PA14 in thigh (bacterial load)” value (P. aeruginosa PA14 [1]; fluorofolin 25 mg/kg SC + SMX 100 mg/kg IP at 1 and 12 hours post infection, vs no treatment and SMX alone, P<0.0001) was “significantly inhibited the growth of PA14”, the “P. aeruginosa load in thigh, thymidine-supplemented diet” value (P. aeruginosa PA14 [1]; fluorofolin and SMX, mice fed thymidine-supplemented chow, vs untreated mice) was “significant reduction” and the “increase in IC50 compared to IRS-16” value (WI-38 cells) was 58.5 fold. It also gave an IC50 (purified human DHFR) of 14 ± 4 nM, an MIC (P. aeruginosa PA01) of 6.25 µg/mL and an MIC (E. cloacae ATCC BAA-1143) of 12.5 µg/mL. The MIC (S. aureus USA300) was 0.4 µg/mL and the “disruption of membranes (TO-PRO-3)” value (P. aeruginosa PA14 [2]) was “does not cause significant disruption”.
